Source: ChEMBL document CHEMBL1201862, “PubChem BioAssay data set” (2004)
Blank lines part the entries; values can stand above or below the molecule they belong to. Active and inactive are the calls of the source.

Tests used:
SUMO E1/E2 = SUMO E1/E2 (Homo sapiens, UniProt P63279+Q9UBE0+Q9UBT2); experiment: SAR analysis of SUMOylation using HTRF in an in-Vitro dose response assay. [Related pubchem assays (depositor defined):AID2006, AID2011, AID2018, AID2069, AID2658]; format: functional
Genome polyprotein = Genome polyprotein (dengue virus type 2, UniProt P29990); experiment: Dengue-2 NS5 methyltransferase inhibitors, primary screen, biochemical, confirmation dose response (AID 588689); format: functional
Streptococcus = experiment: Group A Streptococcus viability loss, dose response, counter-screen for streptokinase expression inhibitor project, luminescence, BacTiterGlo (AID 1915); format: functional, organism-based;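 further: potency for reduction of bacterial viability or growth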
[1] = biological target: Induced myeloid leukemia cell differentiation protein Mcl-1 (Homo sapiens, UniProt Q07820); format: functional
[2] = biological target: T1, Sentrin-specific protease 8 (Homo sapiens, UniProt Q96LD8); experiment: SENP8 protease inhibitors, SAR follow-up, biochemical, luminescence (AID 504501); format: functional
T1 sequence (Q96LD8 whole entry): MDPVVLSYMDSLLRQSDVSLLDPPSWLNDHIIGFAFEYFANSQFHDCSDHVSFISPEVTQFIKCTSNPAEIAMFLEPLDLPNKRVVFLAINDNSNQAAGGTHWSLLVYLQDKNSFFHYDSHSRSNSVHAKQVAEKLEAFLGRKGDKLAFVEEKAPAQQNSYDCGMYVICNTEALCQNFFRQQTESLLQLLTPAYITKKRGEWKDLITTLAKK

[3] = biological target: T2, Sentrin-specific protease 7 (Homo sapiens, UniProt Q9BQF6); experiment: SENP7 protease inhibitors, SAR follow-up, biochemical, luminescence (AID 504497); format: functional
T2 sequence (Q9BQF6 whole entry): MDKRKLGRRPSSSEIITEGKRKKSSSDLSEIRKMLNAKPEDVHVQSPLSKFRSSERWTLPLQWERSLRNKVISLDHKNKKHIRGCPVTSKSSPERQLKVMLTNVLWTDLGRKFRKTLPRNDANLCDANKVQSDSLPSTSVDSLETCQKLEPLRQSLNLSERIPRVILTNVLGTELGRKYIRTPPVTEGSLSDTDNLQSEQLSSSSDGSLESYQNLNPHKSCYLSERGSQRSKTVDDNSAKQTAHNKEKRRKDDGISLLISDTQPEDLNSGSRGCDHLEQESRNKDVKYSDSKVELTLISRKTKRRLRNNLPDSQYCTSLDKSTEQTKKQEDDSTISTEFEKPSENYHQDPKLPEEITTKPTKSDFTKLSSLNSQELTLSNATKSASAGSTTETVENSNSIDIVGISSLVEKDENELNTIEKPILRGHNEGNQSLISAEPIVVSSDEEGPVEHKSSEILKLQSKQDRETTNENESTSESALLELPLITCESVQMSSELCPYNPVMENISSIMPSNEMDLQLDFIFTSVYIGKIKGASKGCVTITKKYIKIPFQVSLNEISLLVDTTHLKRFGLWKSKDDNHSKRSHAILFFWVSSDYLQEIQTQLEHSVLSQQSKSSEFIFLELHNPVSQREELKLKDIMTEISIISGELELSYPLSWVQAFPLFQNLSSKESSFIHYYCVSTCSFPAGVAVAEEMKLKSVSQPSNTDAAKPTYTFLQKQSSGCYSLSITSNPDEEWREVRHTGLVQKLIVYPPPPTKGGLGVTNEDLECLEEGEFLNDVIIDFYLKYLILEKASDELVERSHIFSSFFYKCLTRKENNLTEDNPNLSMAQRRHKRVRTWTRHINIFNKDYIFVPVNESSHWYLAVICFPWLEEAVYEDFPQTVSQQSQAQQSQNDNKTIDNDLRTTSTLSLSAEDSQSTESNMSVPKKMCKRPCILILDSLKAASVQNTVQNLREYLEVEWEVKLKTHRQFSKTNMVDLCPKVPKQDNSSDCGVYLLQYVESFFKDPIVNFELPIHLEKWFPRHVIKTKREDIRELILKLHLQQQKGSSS

[4] = biological target: T3, Alkaline phosphatase, tissue-nonspecific isozyme (Homo sapiens, UniProt P05186); experiment: inhibition of tissue-nonspecific alkaline phosphatase – biochemical, dose response (AID 488882); format: functional
T3 sequence (P05186 whole entry): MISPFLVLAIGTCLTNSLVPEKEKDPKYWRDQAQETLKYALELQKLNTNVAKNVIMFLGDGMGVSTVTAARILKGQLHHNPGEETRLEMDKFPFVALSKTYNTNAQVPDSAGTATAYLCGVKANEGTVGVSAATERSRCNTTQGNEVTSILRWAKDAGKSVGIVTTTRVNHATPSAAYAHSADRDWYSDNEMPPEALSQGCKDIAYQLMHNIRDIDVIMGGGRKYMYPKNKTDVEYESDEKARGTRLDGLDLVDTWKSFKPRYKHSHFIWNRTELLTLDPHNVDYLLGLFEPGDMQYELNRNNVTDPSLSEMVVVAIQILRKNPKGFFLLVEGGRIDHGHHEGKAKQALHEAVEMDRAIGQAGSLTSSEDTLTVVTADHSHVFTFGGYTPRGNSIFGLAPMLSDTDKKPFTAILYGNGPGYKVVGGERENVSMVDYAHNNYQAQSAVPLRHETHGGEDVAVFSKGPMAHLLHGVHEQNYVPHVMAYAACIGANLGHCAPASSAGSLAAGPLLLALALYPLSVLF

[5] = biological target: Macrophage colony-stimulating factor 1 receptor (Homo sapiens, UniProt P07333); format: functional;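 further: value comes from the Navigating the Kinome screening panel, CSF1R member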
[6] = biological target: Mitogen-activated protein kinase 8 (Homo sapiens, UniProt P45983); format: functional;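 further: value comes from one member of a kinome-wide kinase profiling panel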
[7] = biological target: Calcium/calmodulin-dependent protein kinase type 1 (Homo sapiens, UniProt Q14012); format: functional
[8] = biological target: Tyrosine-protein kinase BTK (Homo sapiens, UniProt Q06187); format: functional
[9] = biological target: Cyclin-dependent kinase 7 (Homo sapiens, UniProt P50613); format: functional;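 further: value comes from a kinome-wide kinase profiling panel in which CDK7 is one member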
[10] = biological target: Cyclin-dependent kinase 9 (Homo sapiens, UniProt P50750); format: functional;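 further: value from the CDK9 entry of a kinome-spanning kinase panel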
[11] = biological target: Serine/threonine-protein kinase Nek2 (Homo sapiens, UniProt P51955); format: functional
[12] = biological target: cGMP-dependent protein kinase 1 (Homo sapiens, UniProt Q13976); format: functional;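 further: value from a kinome panel screen with PRKG1 as the panel member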
[13] = biological target: Serine/threonine-protein kinase Nek4 (Homo sapiens, UniProt P51957); format: functional
[14] = biological target: Glycogen synthase kinase-3 alpha (Homo sapiens, UniProt P49840); format: functional;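 further: GSK3A result taken from a broad kinome-wide kinase panel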
[15] = biological target: RAC-gamma serine/threonine-protein kinase (Homo sapiens, UniProt Q9Y243); format: functional
Sequence of RAC-gamma serine/threonine-protein kinase (Q9Y243 whole entry): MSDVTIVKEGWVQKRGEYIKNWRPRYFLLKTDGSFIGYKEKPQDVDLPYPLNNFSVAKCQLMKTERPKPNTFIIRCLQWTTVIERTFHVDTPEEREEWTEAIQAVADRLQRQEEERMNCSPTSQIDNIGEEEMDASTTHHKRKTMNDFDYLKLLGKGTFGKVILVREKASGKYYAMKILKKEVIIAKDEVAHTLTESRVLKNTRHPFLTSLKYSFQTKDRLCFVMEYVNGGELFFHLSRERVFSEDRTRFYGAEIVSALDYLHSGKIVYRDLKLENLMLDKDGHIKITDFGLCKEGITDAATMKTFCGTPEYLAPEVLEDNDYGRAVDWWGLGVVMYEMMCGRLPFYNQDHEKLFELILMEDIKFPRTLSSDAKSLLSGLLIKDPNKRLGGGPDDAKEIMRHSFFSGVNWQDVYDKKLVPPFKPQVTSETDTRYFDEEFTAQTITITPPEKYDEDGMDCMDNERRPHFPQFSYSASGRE

Sequence of Cyclin-dependent kinase 9 (P50750 whole entry): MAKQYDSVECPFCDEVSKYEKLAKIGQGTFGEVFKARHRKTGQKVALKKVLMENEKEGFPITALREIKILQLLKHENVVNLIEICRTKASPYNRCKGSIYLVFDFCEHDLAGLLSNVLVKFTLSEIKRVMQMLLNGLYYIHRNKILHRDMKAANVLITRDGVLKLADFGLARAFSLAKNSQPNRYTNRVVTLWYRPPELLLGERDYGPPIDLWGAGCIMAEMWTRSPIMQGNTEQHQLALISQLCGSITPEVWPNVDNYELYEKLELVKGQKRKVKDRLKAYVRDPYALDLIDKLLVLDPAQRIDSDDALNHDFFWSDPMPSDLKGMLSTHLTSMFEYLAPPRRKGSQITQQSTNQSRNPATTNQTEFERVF
Sequence of Cyclin-dependent kinase 7 (P50613 whole entry): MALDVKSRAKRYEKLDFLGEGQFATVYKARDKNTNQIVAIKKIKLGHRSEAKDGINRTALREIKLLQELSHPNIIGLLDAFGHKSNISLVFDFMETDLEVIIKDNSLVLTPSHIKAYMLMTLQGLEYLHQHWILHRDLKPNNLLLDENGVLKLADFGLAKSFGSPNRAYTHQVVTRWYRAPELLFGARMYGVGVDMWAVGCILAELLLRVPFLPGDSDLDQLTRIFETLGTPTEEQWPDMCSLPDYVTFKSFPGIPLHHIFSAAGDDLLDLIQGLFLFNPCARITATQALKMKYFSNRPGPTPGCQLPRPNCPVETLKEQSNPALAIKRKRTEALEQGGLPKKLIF
Sequence of Calcium/calmodulin-dependent protein kinase type 1 (Q14012 whole entry): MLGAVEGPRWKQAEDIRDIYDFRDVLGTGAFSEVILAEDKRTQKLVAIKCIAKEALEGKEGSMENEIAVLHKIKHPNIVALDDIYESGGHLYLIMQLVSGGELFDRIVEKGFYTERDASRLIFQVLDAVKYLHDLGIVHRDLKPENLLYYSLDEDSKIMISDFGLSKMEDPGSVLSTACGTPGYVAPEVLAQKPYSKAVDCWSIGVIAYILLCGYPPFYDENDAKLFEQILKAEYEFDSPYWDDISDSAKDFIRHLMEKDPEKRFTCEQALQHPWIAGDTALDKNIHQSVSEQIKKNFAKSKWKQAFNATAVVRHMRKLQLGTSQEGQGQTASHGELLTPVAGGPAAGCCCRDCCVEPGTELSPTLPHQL
Sequence of Serine/threonine-protein kinase Nek2 (P51955 whole entry): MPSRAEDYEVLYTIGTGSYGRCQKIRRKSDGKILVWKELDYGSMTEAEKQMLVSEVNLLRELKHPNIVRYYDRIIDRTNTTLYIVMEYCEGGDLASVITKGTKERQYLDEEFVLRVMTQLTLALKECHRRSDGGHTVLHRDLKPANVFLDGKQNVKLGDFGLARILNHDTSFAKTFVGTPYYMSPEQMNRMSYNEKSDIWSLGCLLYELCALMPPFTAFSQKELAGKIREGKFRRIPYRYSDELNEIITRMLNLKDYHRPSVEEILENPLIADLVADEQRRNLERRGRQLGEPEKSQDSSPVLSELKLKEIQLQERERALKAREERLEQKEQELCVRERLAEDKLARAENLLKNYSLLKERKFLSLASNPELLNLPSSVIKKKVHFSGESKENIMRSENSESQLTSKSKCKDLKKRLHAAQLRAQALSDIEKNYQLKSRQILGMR
Sequence of cGMP-dependent protein kinase 1 (Q13976 whole entry): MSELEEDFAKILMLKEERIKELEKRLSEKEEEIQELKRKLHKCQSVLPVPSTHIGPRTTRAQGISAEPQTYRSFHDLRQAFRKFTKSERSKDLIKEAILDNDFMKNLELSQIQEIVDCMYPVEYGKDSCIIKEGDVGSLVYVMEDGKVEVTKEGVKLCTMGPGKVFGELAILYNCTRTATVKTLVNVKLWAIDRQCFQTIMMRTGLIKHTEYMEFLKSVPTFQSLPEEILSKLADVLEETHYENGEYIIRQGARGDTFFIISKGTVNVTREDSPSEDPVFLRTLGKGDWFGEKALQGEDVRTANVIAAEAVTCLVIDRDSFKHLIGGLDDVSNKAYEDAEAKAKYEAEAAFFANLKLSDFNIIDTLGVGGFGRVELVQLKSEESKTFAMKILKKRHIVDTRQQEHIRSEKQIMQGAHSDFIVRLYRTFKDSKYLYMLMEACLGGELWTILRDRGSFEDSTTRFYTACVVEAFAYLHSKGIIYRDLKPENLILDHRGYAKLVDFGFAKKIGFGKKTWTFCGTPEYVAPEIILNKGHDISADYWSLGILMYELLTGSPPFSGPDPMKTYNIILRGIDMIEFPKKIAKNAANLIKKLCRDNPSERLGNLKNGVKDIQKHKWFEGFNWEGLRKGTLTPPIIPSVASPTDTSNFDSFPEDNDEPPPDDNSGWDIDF
Sequence of Glycogen synthase kinase-3 alpha (P49840 whole entry): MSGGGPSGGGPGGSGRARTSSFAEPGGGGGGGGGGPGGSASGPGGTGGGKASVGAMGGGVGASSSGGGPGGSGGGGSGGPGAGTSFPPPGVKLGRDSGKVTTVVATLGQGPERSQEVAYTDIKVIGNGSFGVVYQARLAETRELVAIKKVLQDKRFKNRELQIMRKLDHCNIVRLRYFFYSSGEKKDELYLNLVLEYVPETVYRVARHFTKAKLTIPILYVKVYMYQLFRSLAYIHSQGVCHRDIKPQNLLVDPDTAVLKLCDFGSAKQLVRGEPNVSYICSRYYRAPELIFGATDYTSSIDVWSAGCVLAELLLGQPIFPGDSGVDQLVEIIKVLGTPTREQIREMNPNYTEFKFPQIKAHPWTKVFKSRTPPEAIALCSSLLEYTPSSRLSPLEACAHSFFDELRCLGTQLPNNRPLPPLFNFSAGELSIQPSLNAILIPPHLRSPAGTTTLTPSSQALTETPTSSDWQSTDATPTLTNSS
Sequence of Mitogen-activated protein kinase 8 (P45983 whole entry): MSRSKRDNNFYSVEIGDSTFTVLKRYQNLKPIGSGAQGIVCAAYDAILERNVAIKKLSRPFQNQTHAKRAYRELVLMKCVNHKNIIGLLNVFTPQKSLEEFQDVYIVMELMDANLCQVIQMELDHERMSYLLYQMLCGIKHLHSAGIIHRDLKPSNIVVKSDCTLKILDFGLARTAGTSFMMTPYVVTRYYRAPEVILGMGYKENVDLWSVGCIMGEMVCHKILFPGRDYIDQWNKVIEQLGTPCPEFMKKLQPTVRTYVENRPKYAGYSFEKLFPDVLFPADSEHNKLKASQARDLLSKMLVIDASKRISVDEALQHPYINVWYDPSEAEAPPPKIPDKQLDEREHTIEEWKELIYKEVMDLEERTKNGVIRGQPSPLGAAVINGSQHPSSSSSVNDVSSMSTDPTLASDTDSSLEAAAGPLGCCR
Sequence of Serine/threonine-protein kinase Nek4 (P51957 whole entry): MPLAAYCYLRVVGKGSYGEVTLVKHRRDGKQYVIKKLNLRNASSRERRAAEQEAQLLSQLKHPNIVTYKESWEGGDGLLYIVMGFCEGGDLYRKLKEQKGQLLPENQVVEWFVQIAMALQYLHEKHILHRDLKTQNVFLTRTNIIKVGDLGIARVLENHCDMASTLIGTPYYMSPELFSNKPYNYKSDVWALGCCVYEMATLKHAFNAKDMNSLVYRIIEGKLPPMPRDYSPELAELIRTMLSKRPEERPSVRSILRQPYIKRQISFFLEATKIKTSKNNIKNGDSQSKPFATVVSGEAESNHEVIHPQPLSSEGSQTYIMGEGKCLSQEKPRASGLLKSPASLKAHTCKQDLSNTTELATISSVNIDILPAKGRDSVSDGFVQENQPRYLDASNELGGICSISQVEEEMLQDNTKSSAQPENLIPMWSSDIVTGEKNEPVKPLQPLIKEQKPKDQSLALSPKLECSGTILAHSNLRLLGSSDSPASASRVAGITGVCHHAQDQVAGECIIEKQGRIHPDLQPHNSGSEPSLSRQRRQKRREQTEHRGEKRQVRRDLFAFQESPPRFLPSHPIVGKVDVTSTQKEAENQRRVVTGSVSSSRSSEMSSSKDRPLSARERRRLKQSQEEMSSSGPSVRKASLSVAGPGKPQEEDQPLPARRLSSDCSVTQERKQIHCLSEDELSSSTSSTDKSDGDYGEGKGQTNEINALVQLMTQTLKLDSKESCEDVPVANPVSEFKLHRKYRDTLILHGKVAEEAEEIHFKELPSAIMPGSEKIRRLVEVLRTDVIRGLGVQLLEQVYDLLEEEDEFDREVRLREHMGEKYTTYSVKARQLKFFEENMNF
Sequence of Induced myeloid leukemia cell differentiation protein Mcl-1 (Q07820 whole entry): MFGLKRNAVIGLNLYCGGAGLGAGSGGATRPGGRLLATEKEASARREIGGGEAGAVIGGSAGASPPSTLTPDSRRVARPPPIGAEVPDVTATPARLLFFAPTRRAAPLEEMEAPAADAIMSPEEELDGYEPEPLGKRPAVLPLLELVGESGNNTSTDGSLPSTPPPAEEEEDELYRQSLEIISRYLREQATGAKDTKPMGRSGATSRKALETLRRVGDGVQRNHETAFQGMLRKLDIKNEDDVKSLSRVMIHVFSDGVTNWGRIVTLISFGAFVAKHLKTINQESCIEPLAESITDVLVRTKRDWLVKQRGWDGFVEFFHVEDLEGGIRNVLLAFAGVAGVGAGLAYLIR

SMILES: CC(=O)NC1C(=O)N(CCN2CCOCC2)c2ccc(F)cc21 (configuration not stated)
IC50 (SUMO E1/E2): 13400 nM (active)

IC50 (Genome polyprotein): 51600 nM (active)
SMILES: O=C1N=C(NS(=O)(=O)Cc2ccccc2)S/C1=C1\C(=O)Nc2ccccc21

SMILES: O=C1C=C(N2CCCCC2)c2ccccc2C1=O
EC50 (Streptococcus): > 50000 nM (not active)

SMILES: O=C(O)C1Nc2c(O)cc(Cl)c([N+](=O)[O-])c2C2C=CCC12 (configuration not stated)
IC50 [1]: > 54000 nM (active)

SMILES: O=C(CCc1ccccc1)NNc1cc(N2CCCCC2)nc(N2CCCCC2)n1
IC50 [2]: > 99000 nM (inactive)
IC50 [3]: 57900 nM (active)

SMILES: Oc1ccc(N=Nc2c(O)ccc3ccccc23)cc1
IC50 [4]: 16500 nM (active)

Ki [5]: > 2510 nM (inactive)
Ki [6]: 2510 nM (active)
Ki [7]: 100 nM (active)
pKi [7]: 7
Ki [8]: > 1260 nM (inactive)
Ki [9]: 20 nM (active)
pKi [9]: 7.7
Ki [10]: 63.1 nM (active)
pKi [10]: 7.2
Ki [11]: > 10000 nM (inactive)
Ki [12]: 10 nM (active)
Ki [13]: 251 nM (active)
Ki [14]: 50.1 nM (active)
Ki [15]: 5.01 nM (active)
pKi [15]: 8.3
SMILES: Cc1n[nH]c2ccc(-c3cncc(OCC(N)Cc4cccc(Cl)c4)c3)cc12 (configuration not stated)
